From patent US5101072A, “Sulfonylhydrazines and their use as antineoplastic agents and as antitrypanosomal agents” (Yale University, priority 1989, dated 1992)

Legend:
L1210 leukemia = assay: Survival time of mice bearing the L1210 leukemia; format: in vivo; details: for 60-day cures, % / % T/C (average survival time of treated/control animals × 100): L1210, at optimum effective daily dose, once daily × 6 days; for AvΔ Wt, % (average change in body weight from onset to termination of therapy): mice bearing L1210, at optimum effective daily dose
Protocol: The tumor-inhibitory properties of several compounds, e.g., 1,2-bis(methylsulfonyl)-1-methylhydrazine, 1-methyl-1,2,2-tris(methylsulfonyl)hydrazine, 1,2-bis(methylsulfonyl)-1,2-dimethylhydrazine and 1-(2-chloroethyl)-1,2,2-tris(methylsulfonyl)hydrazine were determined by measuring the effects of these agents on the survival time of mice bearing the L1210 leukemia as described by K. Shyam, L. A. Cosby, and A. C. Sartorelli, J. Med. Chem., 28, 525-527 (1985).
^a Administered once daily for 6 consecutive days, beginning 24 hours
after tumor transplantation with 5-10 animals being used per group.
^b Average change in body weight from onset to termination of therapy
^c % T/C = average survival time of treated/control animals ×

[1] = system: T. rhodesiense (Y Tat 1.1); assay: Survival time of CD-1 mice infected with T. rhodesiense (trypanocidal activity); format: in vivo, T. rhodesiense (Y Tat 1.1); CD-1 mice
Protocol: The trypanocidal properties of several methylating agents including MeSO2 N(Me)N(SO2 Me)2 and MeSO2 N(Me)N(Me)SO2 Me were determined by measuring their effects on the survival time of CD-1 mice infected with T. rhodesiense (Y Tat 1.1), a pleimorphic strain that produces a non-relapsing disease in mice. The level of parasites in the bloodstream and body fluids increases by approximately 10-fold per day and the animals die when the parasite burden exceeds 1 to 2×10^9 cells/ml. Infection with a single viable parasite will kill a mouse in approximately 9 to 10 days.
Mice were infected ip with approximately 10^6 trypanosomes/mouse in phosphate buffered saline containing glucose. This level of parasites produces death in 4 days post-infection. These mice were treated (ip) with a single dose of drug dissolved in the appropriate vehicle 3 days after infection, when the parasitemia was 1 to 3×10^8 cells/ml of blood and the mice, if untreated, would survive for only 24 additional hours. The number of days the mice survived beyond that of the untreated controls was used as a measure of trypanocidal activity. The level of parasitemia in treated mice was measured at regular intervals to distinguish between parasite-related and drug toxicity-related deaths. No toxic deaths were observed. Mice that survived for 30 days without detectable parasitemias were considered cured. The effects of a single dose of various methylating agents on the survival time of trypanosome-bearing mice are summarized in Table II.
^a Drug that was administered was dissolved in 0.5 ml of phosphate
buffered saline containing glucose.
^b Drug that was administered was dissolved in 0.05 ml of DMSO.

[2] = single ip dose 0.2 mmol/kg in 0.5 ml phosphate buffered saline containing glucose
[3] = single ip dose 0.2 mmol/kg in 0.05 ml of DMSO

How did the “60-day cures, %” value (L1210 leukemia) turn out when `CS(=O)(=O)N(N(CCCl)S(=O)(=O)c1ccc(Br)cc1)S(C)(=O)=O` [Br-4-C6 H4 SO2 N(CH2 CH2 Cl)N(SO2 Me)2, 2,2-Bis(methylsulfonyl)-1-[(4-bromophenyl)sulfonyl]-1-(2-chloroethyl)hydrazine] was run?
Its value is 60%.

What about the “% T/C (average survival time of treated/control animals × 100)” value (L1210 leukemia) of the same compound?
Its value is 241%.

What about the “AvΔ Wt, % (average change in body weight from onset to termination of therapy)” value (L1210 leukemia) of the same compound?
Its value is “+0.9%”.

Which results are given for `CS(=O)(=O)N(N(CCCl)S(=O)(=O)c1ccccc1)S(C)(=O)=O` [C6 H5 SO2 N(CH2 CH2 Cl)N(SO2 Me)2, 2,2-bis(methylsulfonyl)-1-(2-chloroethyl)-1-phenylsulfonylhydrazine]?
60-day cures, % (L1210 leukemia): 40%; % T/C (average survival time of treated/control animals × 100) (L1210 leukemia): 187%; AvΔ Wt, % (average change in body weight from onset to termination of therapy) (L1210 leukemia): +0.5%

Which results are given for `CS(=O)(=O)N(N(CCCl)S(=O)(=O)c1ccc(Cl)cc1)S(C)(=O)=O` [Cl-4-C6 H4 SO2 N(CH2 CH2 Cl)N(SO2 Me)2, 2,2-Bis(methylsulfonyl)-1-(2-chloroethyl)-1-[(4-chlorophenyl)sulfonyl]hydrazine]?
60-day cures, % (L1210 leukemia): 60%; % T/C (average survival time of treated/control animals × 100) (L1210 leukemia): 203%; AvΔ Wt, % (average change in body weight from onset to termination of therapy) (L1210 leukemia): -3.4%

With `CN(C)N=Nc1[nH]cnc1C(N)=O` [DTIC, 5-(3,3-dimethyl-1-triazenyl)-1H-imidazole-4-carboxamide] as the compound, how does the “Mean Extension of Life” value [1, 2] read?
The value was 6.0 days.

With `CCOS(=O)(=O)OCC` [Et2 SO4] as the compound, how does the “Mean Extension of Life” value [1, 3] read?
The value was 0 days.

Which “Mean Extension of Life” value [1, 2] does the source give for `CCNNCC` [EtNHNHEt] here?
The value was 0 days.

With `COS(=O)(=O)OC` [Me2 SO4] as the compound, how does the “Mean Extension of Life” value [1, 3] read?
The value was 3.0 days.

With `Cc1ccc(S(=O)(=O)N(CCCl)N(S(C)(=O)=O)S(C)(=O)=O)cc1` [Me-4-C6 H 4 SO2 N(CH2 CH2 Cl)N(SO2 Me)2, 2,2-bis(methylsulfonyl)-1-(2-chloroethyl)-1-(4-toluenesulfonyl)hydrazine] as the compound, how does the “60-day cures, %” value (L1210 leukemia) read?
Its value is 60%.

And the “% T/C (average survival time of treated/control animals × 100)” value (L1210 leukemia)?
Its value is 215%.

And the “AvΔ Wt, % (average change in body weight from onset to termination of therapy)” value (L1210 leukemia)?
Its value is -12.0%.

How did the “Mean Extension of Life” value ([1]; single ip dose 0.5 mmol/kg in 0.5 ml phosphate buffered saline containing glucose) turn out when `CNN` [MeNHNH2, methylhydrazine] was run?
Its value is 1 days.

For `CNNC` [MeNHNHMe, 1,2-dimethylhydrazine], which “Mean Extension of Life” value [1, 2] is on record?
Its value is 4.3 days.

`COc1ccc(S(=O)(=O)N(CCCl)N(S(C)(=O)=O)S(C)(=O)=O)cc1` [MeO-4-C6 H4 SO2 N(CH2 CH2 Cl)N(SO2 Me)2, 2,2-Bis(methylsulfonyl)-1-(2-chloroethyl)-1-[(4-methoxyphenyl)sulfonyl]hydrazine] was tested. Which “60-day cures, %” value (L1210 leukemia) did it give?
Its value is 100%.

And the “AvΔ Wt, % (average change in body weight from onset to termination of therapy)” value (L1210 leukemia)?
Its value is “+5.9%”.

For `CS(=O)(=O)N(CCBr)N(S(C)(=O)=O)S(C)(=O)=O` [MeSO2 N(CH2 CH2 Br)N(SO2 Me)2, 1-(2-bromoethyl)-1,2,2-tris(methylsulfonyl)hydrazine], which “60-day cures, %” value (L1210 leukemia) is on record?
The value was 0%.

And the “% T/C (average survival time of treated/control animals × 100)” value (L1210 leukemia)?
Its value is 213%.

What about the “AvΔ Wt, % (average change in body weight from onset to termination of therapy)” value (L1210 leukemia) of the same compound?
Its value is -2.0%.
